Source: patent US6063797A, “γ-RAR antagonist ligand or α-RAR agonist ligand as an apoptosis inhibitor” (priority 1995, dated 2000)
Read-outs that look alike come from different tables or passages of the source.

Assays:
thymocytes [1] = test: Quantitative DNA fragmentation (apoptosis) in thymocytes, retinoid-induced (Example 1); format: cell-based, mouse (NMRI); settings: for % of DNA fragments: 6 h
Description: (§1) Thymus glands from untreated 4-week old NMRI male mice (sold by LATI, Godollo, Hungary) are used as the starting material for preparing thymocyte suspensions. The medium employed is Sigma RPMI 1640 medium which is supplemented with Gibco foetal calf serum, 2 mM glutamine, 100 IU of penicillin and 100 μg of streptomycin/ml. The thymocytes are then washed and diluted, in order to obtain a final concentration of 10^7 cells/ml, before incubating them at 37° C. in a humidified incubator under an atmosphere of 5% CO2 and 95% air. The death of the cells is measured by the uptake of trypan blue.
(§2) The thymocytes are incubated in 24 wells together with various compounds to be tested. After 6 hours of incubation, 0.8 ml volumes of cell suspensions were lysed by the addition of 0.7 ml of lysis buffer containing 0.5% (v/v) Triton X-100, 10 mM Tris, 20 mM EDTA, pH 8.0, before being centrifuged at 13,000 g for 15 minutes.
(§3) Quantitative analysis of the DNA: the DNA contained in the supernatant (the fragments) and the pellet (intact chromatin) was precipitated with an equivalent quantity of 10% trichloroacetic acid, resuspended in 5% trichloroacetic acid and then quantified using the diphenylamine reagent (Burton, K. (1956) Biochem. J., 62, 315-322).
Qualitative analysis of the DNA: in parallel, the supernatant was precipitated overnight in ethanol containing […]. The pellets are redissolved in a buffer containing 10 mM Tris, 1 mM EDTA, pH 8.0, after which the solutions are treated with RNase and sequentially extracted with an equal volume of phenol and chloroform/isoamyl alcohol (24/1); the DNA is then precipitated in ethanol before electrophoresis for 3 hours at 60 V in a 1.8% agarose gel. The DNA fragments were then visualized by UV after the gel had been stained with ethidium bromide. The gels obtained display the picture of a ladder of DNA fragments which are multiples of from 180 to 200 base pairs and which are typical for an apoptosis induction. Throughout the experiments, the degree of fragmentation correlates with the number of cells which are dead and which are positive to the trypan blue test.
(§4) The percentage of DNA fragment in this table corresponds to the difference between the percentage of DNA fragment obtained in the treated thymocytes and the percentage of DNA fragment obtained in the untreated thymocytes (basal rate of apoptosis for these thymocytes).

thymocytes [2] = test: DNA fragmentation (apoptosis) in thymocytes induced by CD437 (Example 2); format: cell-based, mouse (NMRI); settings: for % of DNA fragments: difference treated minus untreated
Description: as §1, §2, §3
The procedure is the same as in the preceding example, except that the nature of the ligands to be tested, and their concentration, are altered.
as §4

thymus = format: in vivo, mouse (NMRI); settings: for Weight of the thymus: 48 h, control 98.2 ± 19.6
Description: 4-week-old male NMRI mice (sold by LATI, Godollo, Hungary) were used. […] For the control, male mice were treated by a single intraperitoneal injection of a mixture of 40 μl of DMSO and 0.5 ml of 20% ethanol. The CD2665 was also tested alone under the same conditions as before and in a quantity of 0.5 mg. The weight of the thymus was determined after 48 hours of treatment, and the results are assembled in Table 4 below.

thymocytes [3] = test: DNA fragmentation (apoptosis) in thymocytes induced by activating a T-cell receptor with phorbol dibutyrate + Ca++ ionophore (Example 3); format: cell-based, mouse (NMRI); settings: for % of DNA fragments: difference treated minus untreated
RAR-α = molecular target: T1, RAR-α (Homo sapiens, UniProt P10276); test: Dissociation constant for RAR-α receptors; format: binding
T1 sequence (P10276 1-462): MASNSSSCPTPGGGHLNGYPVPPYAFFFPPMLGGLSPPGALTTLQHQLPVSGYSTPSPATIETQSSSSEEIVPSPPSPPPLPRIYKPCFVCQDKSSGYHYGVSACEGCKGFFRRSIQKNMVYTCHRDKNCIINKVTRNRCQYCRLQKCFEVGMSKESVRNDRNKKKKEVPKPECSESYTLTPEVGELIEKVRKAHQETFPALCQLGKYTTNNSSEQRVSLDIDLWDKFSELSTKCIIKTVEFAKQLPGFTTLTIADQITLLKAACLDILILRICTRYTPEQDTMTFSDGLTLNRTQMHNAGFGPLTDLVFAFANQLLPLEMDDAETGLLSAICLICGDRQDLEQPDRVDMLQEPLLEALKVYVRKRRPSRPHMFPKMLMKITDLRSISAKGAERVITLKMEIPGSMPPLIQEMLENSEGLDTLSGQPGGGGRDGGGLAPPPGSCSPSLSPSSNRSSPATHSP

RAR-γ = molecular target: T2, RAR-γ (Homo sapiens, UniProt P13631); test: Dissociation constant for RAR-γ receptors; format: binding
T2 sequence (P13631 1-454): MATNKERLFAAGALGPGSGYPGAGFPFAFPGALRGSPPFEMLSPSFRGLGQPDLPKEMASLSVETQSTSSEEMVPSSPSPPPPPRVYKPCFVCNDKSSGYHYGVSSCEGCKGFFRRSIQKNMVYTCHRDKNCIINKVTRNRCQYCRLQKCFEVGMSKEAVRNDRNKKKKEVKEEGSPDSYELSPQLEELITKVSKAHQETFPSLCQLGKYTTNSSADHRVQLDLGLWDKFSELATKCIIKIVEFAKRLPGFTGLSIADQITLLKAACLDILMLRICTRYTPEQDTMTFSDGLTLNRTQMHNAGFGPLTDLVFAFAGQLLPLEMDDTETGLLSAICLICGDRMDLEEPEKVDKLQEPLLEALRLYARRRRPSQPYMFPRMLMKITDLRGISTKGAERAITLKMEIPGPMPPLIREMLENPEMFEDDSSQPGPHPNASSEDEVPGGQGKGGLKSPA

[4] = 0.5 mg single intraperitoneal injection, alone

Q: Which “% of DNA fragments” value (thymocytes [1]; CD437 300 nM, difference treated minus untreated thymocytes) does the source give for `O=C(O)c1ccc2cc(-c3ccc(O)c(C45CC6CC(CC(C6)C4)C5)c3)ccc2c1` [CD437, reference compound] here?
A: Its value is 24%.

Q: And the “% of DNA fragments” value (thymocytes [2]; CD437 alone 0.3 × 10^-6 M)?
A: Its value is 17%.

Q: And the “Weight of the thymus” value (thymus; [4])?
A: The value was 31.3 ± 13.6 mg.

Q: And the “involution of the thymus” value (thymus; alone, conclusion from Table 4)?
A: Its value is “involution of the thymus is observed”.

Q: Which “% of DNA fragments” value (thymocytes [2]; CD336 alone 10^-6 M) does the source give for `CC1(C)CCC(C)(C)c2cc(C(=O)Nc3ccc(C(=O)O)cc3)ccc21` [CD336, 4-((5,6,7,8-tetrahydro-5,5,8,8-tetramethyl-2-naphthalenyl)carboxamido)benzoic acid] here?
A: The value was 0%.

Q: What about the “% of DNA fragments” value (thymocytes [2]; CD336 alone 10^-7 M) of the same molecule?
A: Its value is 0%.

Q: And the “% of DNA fragments” value (thymocytes [2]; CD336 alone 10^-8 M)?
A: Its value is 0%.

Q: What about the “% of DNA fragments” value (thymocytes [2]; CD437 + CD336 10^-6 M) of the same molecule?
A: The value was 0%.

Q: And the “% of DNA fragments” value (thymocytes [2]; CD437 + CD336 10^-7 M)?
A: Its value is 5%.

Q: What about the “% of DNA fragments” value (thymocytes [2]; CD437 + CD336 10^-8 M) of the same molecule?
A: Its value is 17%.

Q: What about the “inhibition of apoptosis induced by CD437” value (thymocytes [2]; conclusion from Table 2) of the same molecule?
A: Its value is “inhibited in a dose-dependent manner”.

Q: What about the “% of DNA fragments” value (thymocytes [3]; (P + C) + CD336 30 nM) of the same molecule?
A: Its value is 9.6%.

Q: And the “% of DNA fragments” value (thymocytes [3]; (P + C) + CD336 300 nM)?
A: The value was 8.4%.

Q: What about the “% of DNA fragments” value (thymocytes [3]; (P + C) + CD336 3000 nM) of the same molecule?
A: The value was 1.1%.

Q: And the “% of DNA fragments” value (thymocytes [3]; CD336 alone 30 nM)?
A: The value was 0%.

Q: What about the “% of DNA fragments” value (thymocytes [3]; CD336 alone 300 nM) of the same molecule?
A: Its value is 0%.

Q: And the “% of DNA fragments” value (thymocytes [3]; CD336 alone 3000 nM)?
A: The value was 0%.

Q: What about the “inhibition of apoptosis induced by P+C” value (thymocytes [3]; conclusion from Table 3) of the same molecule?
A: Its value is “inhibited in a dose-dependent manner”.

Q: For `CC1(C)CCC(C)(C)c2cc(C(=O)Nc3ccc(C(=O)O)c(O)c3)ccc21` [2-hydroxy-4-(5,5,8,8-tetramethyl-5,6,7,8-tetrahydronaphthalene-2-carboxamido)benzoic acid], which “dissociation constant for RAR-α lower than dissociation constant for RAR-γ (fold)” value (RAR-α; RAR-α versus RAR-γ) is on record?
A: The value was “at least 20 times”.

Q: `CC1=C(/C=C/C(C)=C\C=C\C(C)=C\C(=O)O)C(C)(C)CCC1` [9-cisRA, 9-cis-retinoic acid, reference compound] was tested. Which “% of DNA fragments” value (thymocytes [1]; 9-cisRA 1000 nM, difference treated minus untreated thymocytes) did it give?
A: The value was 19%.

Q: With `COCCOCOc1cc2ccc(-c3ccc(C(=O)O)cc3)cc2cc1C12CC3CC(CC(C3)C1)C2` [CD2665, 4-[7-(1-adamantyl)-6-methoxyethoxymethoxy-2-naphthyl]benzoic acid] as the molecule, how does the “% of DNA fragments” value (thymocytes [1]; CD2665 200 nM + 9-cisRA 1000 nM, difference treated minus untreated) read?
A: The value was 1.5%.

Q: What about the “% of DNA fragments” value (thymocytes [1]; CD2665 200 nM + ATRA 5000 nM, difference treated minus untreated) of the same molecule?
A: Its value is 0%.

Q: What about the “% of DNA fragments” value (thymocytes [1]; CD2665 200 nM + CD437 300 nM, difference treated minus untreated) of the same molecule?
A: The value was 1.0%.

Q: And the “% of DNA fragments” value (thymocytes [1]; CD2665 200 nM alone, difference treated minus untreated thymocytes)?
A: The value was 0.5%.

Q: What about the “inhibition of apoptosis induced by ATRA, 9-cisRA and CD437” value (thymocytes [1]; conclusion from Table 1) of the same molecule?
A: The value was “inhibited”.

Q: And the Kd (RAR-α)?
A: Its Kd is greater than 2250 nM.

Q: What about the “Weight of the thymus” value (thymus; [4]) of the same molecule?
A: The value was 107.6 ± 21.7 mg.

Q: And the “Weight of the thymus” value (thymus; CD2665 5 mg + CD437 0.5 mg, single intraperitoneal injection)?
A: Its value is 63.3 ± 9.1 mg.

Q: What about the “involution of the thymus” value (thymus; alone, conclusion from Table 4) of the same molecule?
A: Its value is “no significant change is observed”.

Q: What about the “involution of the thymus” value (thymus; combination of CD2665 and CD437, compared with CD437 alone) of the same molecule?
A: Its value is “involution of the thymus which is much less marked than that observed with CD437 alone”.

Q: And the Kd (RAR-γ)?
A: The Kd was 110 nM.

Q: What about the “dissociation constant for RAR-γ lower than dissociation constant for RAR-α (fold)” value (RAR-γ; RAR-γ versus RAR-α) of the same molecule?
A: The value was “at least 20 times”.

Q: Which “% of DNA fragments” value (thymocytes [1]; ATRA 5000 nM, difference treated minus untreated thymocytes) does the source give for `CC1=C(/C=C/C(C)=C/C=C/C(C)=C/C(=O)O)C(C)(C)CCC1` [ATRA, all-trans retinoic acid, reference compound] here?
A: Its value is 17%.
